Experimental data published in patent US6726911B1, “Biologically active compounds of Ganoderma pfeifferi DSM 13239” (Ganomycin, priority 1999, dated 2004).
Read-outs that look alike come from different tables or passages of the source.

Legend:
CD-14 receptor = molecular target: T1, CD-14 receptor (Homo sapiens, UniProt P08571); experiment: serum-mediated binding of FITC-labeled lipopolysaccharide to CD-14 transfected Chinese hamster ovary cell lines; assay type: cell-based; conditions: CD14+ cells
T1 construct: expressed in transfected cells; host or cells: Chinese hamster ovary cell lines
T1 sequence (P08571 20-345): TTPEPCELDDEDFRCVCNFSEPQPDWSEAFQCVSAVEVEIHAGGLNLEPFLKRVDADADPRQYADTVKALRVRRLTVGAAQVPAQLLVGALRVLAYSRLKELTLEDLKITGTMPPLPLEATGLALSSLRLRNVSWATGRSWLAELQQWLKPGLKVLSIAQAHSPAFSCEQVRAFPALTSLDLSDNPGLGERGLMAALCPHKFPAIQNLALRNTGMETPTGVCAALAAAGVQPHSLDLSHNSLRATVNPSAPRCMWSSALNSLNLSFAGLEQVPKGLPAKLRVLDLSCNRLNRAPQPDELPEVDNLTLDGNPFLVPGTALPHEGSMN
Procedure: Methods: The test was performed according to Grunwald (CD-14 als Rezeptor für Endotoxin: in vitro-Untersuchungen zu Bindungsmodalitaten von LPS und zur Beeinflussung der Expression. Dissertation Ernst-Moritz-Arndt-Universität Greifswald 1993). For the tests, cell lines from ovaries of Chinese hamsters were used which express the CD-14 receptor after transfection of the CD-14 gene. The lipopolysaccharide was labeled with FITC so that the binding to the receptor could be determined by measuring the fluorescence intensity.

influenza virus type A = experiment: antiviral activity
[1] = system: Aeromonas salmonicida subsp. salmonicida 67 A 1; experiment: agar diffusion test on fish-pathogenic bacteria; assay type: cell-based
[2] = system: Aeromonas hydrophila DSM 30019; experiment: agar diffusion test on fish-pathogenic bacteria; assay type: cell-based
[3] = system: Vibrio anguillarum ATCC 1188; experiment: agar diffusion test on fish-pathogenic bacteria; assay type: cell-based
[4] = system: oxygen free-radical release; experiment: free-radical scavenging by luminol chemiluminescence in zymosan-stimulated human blood; assay type: cell-based; conditions: 10 μg/ml
Procedure: The proof was established as follows:
A: […] was preincubated with […] of PBS+luminol (0.33 mM final) at 37° C. for 20 min.
B: 30 μl of human blood was preincubated with […] of PBS+luminol (0.33 mM final) and […] of substance dilution at 37° C. for 20 min.
To A was pipetted 20 μl of a 1:100 dilution of the extract of Example 11 and 20 μl of zymosan (10 mg/ml).
To B was pipetted 20 μl of zymosan (10 mg/ml).
As a control, PBS was used instead of zymosan as a stimulator with and without substance in charges A and B. After intensive mixing, the kinetics of the luminescence were measured over 60 min. The examinations were performed on two different days with blood from two different blood donors.
Methods: The free-radical scavenging function of the active substances of formula 1, ganomycin A and ganomycin B, broadens the possibilities of medicinal use. The proof was established as in the examination of the extracts according to Example 48.

S. aureus = experiment: agar diffusion test
Procedure: In the first stage of examination, the agar diffusion test was employed. The extracts and substances to be tested were respectively dissolved using appropriate solvents (dichloromethane, methanol and water) and applied to filter paper sheets in different concentrations. Comparative sheets soaked with 25 μl of the corresponding solvent served as a control. Ampicillin (10 μg/sheet) was employed as a reference substance. The dried filter paper sheets were finally placed onto agar plates. For the basic screening, nutrient agar II (VEB Immunpraparate, Berlin, Germany) was employed, and for the examination on strains isolated from patient material, Mueller-Hinton II agar (Becton Dickinson Microbiology Systems, Cockeysville, USA) was employed. Using an inoculation wire loop, a pinheadful of test germ culture was suspended in 3 ml of a sterile 0.90% NaCl solution. Subsequently, 200 μl of the germ suspension was added to 20 ml of sterile, liquefied and slightly warm nutrient agar and cast into Petri dishes having a diameter of 10 cm. After placing the sheets onto the congealed agar, the plates were preincubated at 8° C. for about 2 to 3 hours, followed by incubation of the plates in an incubator at 37° C. for 24 hours. Micrococcus flavus was an exception. This culture was stored only at room temperature because the germ reaches its optimum growth at 20° C.
The evaluation of the plates was effected by measuring the diameters of the inhibition halos. All operations were done under aseptic conditions.

S. haemolyticus = experiment: agar diffusion test on pathogens of Gram-positive infections; conditions: S. haemolyticus (multiresistant strains isolated from patient material)
Procedure: (§1) In the first stage of examination, the agar diffusion test was employed. The extracts and substances to be tested were respectively dissolved using appropriate solvents (dichloromethane, methanol and water) and applied to filter paper sheets in different concentrations. Comparative sheets soaked with 25 μl of the corresponding solvent served as a control. Ampicillin (10 μg/sheet) was employed as a reference substance. The dried filter paper sheets were finally placed onto agar plates. For the basic screening, nutrient agar II (VEB Immunpraparate, Berlin, Germany) was employed, and for the examination on strains isolated from patient material, Mueller-Hinton II agar (Becton Dickinson Microbiology Systems, Cockeysville, USA) was employed. Using an inoculation wire loop, a pinheadful of test germ culture was suspended in 3 ml of a sterile 0.90% NaCl solution. Subsequently, 200 μl of the germ suspension was added to 20 ml of sterile, liquefied and slightly warm nutrient agar and cast into Petri dishes having a diameter of 10 cm. After placing the sheets onto the congealed agar, the plates were preincubated at 8° C. for about 2 to 3 hours, followed by incubation of the plates in an incubator at 37° C. for 24 hours. Micrococcus flavus was an exception. This culture was stored only at room temperature because the germ reaches its optimum growth at 20° C. […]

Enterococci = experiment: as above; conditions: Enterococci (multiresistant strains isolated from patient material)
Procedure: as §1

[5] = system: human hepatoma cells (PLC/PRF/5 cells); conditions: Hager, reference 66; cited from earlier work
KB cells = conditions: Hager, reference 66; cited from earlier work
[6] = system: peritoneal mast cells of rats; conditions: 2 mg/ml; Hager, reference 31; cited from earlier work
[7] = molecular target: angiotensin-converting enzyme (Homo sapiens, UniProt P12821); conditions: in vitro; Hager, reference 39; cited from earlier work
Chain of angiotensin-converting enzyme (P12821 30-1306, species assumed): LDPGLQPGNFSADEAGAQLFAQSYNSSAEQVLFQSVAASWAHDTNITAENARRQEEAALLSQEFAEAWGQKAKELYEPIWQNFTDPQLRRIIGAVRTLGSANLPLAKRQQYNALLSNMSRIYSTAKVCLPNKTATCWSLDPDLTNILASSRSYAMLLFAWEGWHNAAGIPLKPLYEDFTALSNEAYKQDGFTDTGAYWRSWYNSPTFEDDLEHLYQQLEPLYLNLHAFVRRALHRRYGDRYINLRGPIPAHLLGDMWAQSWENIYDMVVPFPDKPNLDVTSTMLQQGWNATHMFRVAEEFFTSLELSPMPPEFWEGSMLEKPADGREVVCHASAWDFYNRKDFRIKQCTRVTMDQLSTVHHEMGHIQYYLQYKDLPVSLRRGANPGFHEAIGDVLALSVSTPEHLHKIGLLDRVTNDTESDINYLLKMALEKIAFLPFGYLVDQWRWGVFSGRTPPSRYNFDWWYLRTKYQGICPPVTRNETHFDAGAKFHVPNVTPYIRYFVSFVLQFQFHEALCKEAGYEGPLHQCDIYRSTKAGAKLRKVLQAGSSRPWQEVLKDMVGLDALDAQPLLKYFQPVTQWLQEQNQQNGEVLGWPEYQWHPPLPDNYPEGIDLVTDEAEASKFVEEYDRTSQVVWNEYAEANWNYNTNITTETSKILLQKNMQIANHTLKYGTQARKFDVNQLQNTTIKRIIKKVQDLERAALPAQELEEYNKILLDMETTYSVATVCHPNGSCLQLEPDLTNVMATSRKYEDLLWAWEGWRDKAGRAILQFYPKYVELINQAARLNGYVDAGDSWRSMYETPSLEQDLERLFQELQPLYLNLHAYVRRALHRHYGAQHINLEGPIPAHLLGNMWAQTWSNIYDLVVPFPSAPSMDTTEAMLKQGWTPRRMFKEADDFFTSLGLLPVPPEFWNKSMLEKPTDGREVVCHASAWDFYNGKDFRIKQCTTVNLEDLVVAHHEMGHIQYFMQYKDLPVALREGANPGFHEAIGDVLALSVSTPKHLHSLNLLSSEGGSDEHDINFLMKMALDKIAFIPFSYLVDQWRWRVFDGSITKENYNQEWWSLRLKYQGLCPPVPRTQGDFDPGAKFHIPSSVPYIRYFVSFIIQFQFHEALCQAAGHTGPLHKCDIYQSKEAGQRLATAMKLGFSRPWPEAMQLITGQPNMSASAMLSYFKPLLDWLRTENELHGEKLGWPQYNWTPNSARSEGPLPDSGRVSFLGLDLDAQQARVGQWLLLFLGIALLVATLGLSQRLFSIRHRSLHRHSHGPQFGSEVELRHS

Procedure for S. epidermidis: Methods: Extracts according to Example 9 in a concentration of 2 mg/l were dropped onto standardized test plates for the resistance assay for the commercially available antibiotics amicazin, trimethroprim and fusidinic acid (Sensi-Disk Antibiotics Test Plates, Becton Dickinson Microbiology Systems, Cockeysville, USA). The antibacterial activity was determined according to Example 1 on multiresistant coagulase-negative staphylococci isolated from patient material.

Compound: C/C(=C\CC[C@@H](C)[C@H]1CC[C@@]2(C)C3=C(CC[C@]12C)[C@@]1(C)CC[C@H](O)C(C)(C)[C@@H]1CC3=O)CO [Ganoderone B, 3,26-dihydroxylanosta-8,24-diene-7-one]
- inhibition of the lipopolysaccharide binding (in words) (CD-14 receptor): inhibits
- antiviral activity against influenza virus type A (influenza virus type A): has antiviral activity

Compound: CC(=CCCC(C)=CCCC(=CCc1cc(O)ccc1O)C(=O)O)CO [Ganomycin A, 2-[2-(2,5-dihydroxyphenyl)ethylidene]-11-hydroxy-6,10-dimethylundeca-5,9-dienic acid]
- Diameter of inhibition halo [1]: 10 mm
- Diameter of inhibition halo [2]: 15 mm
- Diameter of inhibition halo [3]: 10 mm
- inhibition of the lipopolysaccharide binding (in words) (CD-14 receptor): causes inhibition
- luminol-induced and spontaneous oxygen free-radical release [4]: inhibit

Compound: CC(C)=CCCC(C)=CCCC(=CCc1cc(O)ccc1O)C(=O)O [Ganomycin B, 2-[2-(2,5-dihydroxyphenyl)ethylidene]-6,10-dimethylundeca-5,9-dienic acid]
- Diameter of inhibition halo [1]: 12 mm
- Diameter of inhibition halo [2]: 17 mm
- Diameter of inhibition halo [3]: 26 mm
- inhibition of the lipopolysaccharide binding (in words) (CD-14 receptor): causes inhibition
- luminol-induced and spontaneous oxygen free-radical release [4]: inhibit
- Inhibition halo (S. aureus; S. aureus (MRSA strains isolated from patient material)): 10-16 mm
- Inhibition halo (S. aureus; S. aureus ATCC 6538): 30 mm
- Inhibition halo (S. aureus; S. aureus ATCC 25923): 25 mm
- Inhibition halo (S. aureus; S. aureus ATCC 29213): 22 mm
- Inhibition halo (S. aureus; S. aureus reference strain “North-German Strain” (Smith Kline Beecham)): 16 mm
- Inhibition halo (S. haemolyticus): 12-16 mm
- Inhibition halo (Enterococci): 10-14 mm
- Inhibition halo (S. epidermidis; S. epidermidis 125, extract 2 mg/l dropped onto antibiotic test plates): 16 mm
- Inhibition halo (S. epidermidis; S. epidermidis 473, extract 2 mg/l dropped onto antibiotic test plates): 20 mm
- Inhibition halo (S. epidermidis; S. epidermidis 847, extract 2 mg/l dropped onto antibiotic test plates): 16 mm
- Inhibition halo (S. epidermidis; S. epidermidis (multiresistant strains isolated from patient material)): 16-20 mm

Compound: CC(C)[C@@H](C)C=C[C@@H](C)[C@H]1CC[C@H]2C3=CCC4C[C@H](O)[C@@H](O)C[C@]4(C)[C@@]3(O)CC[C@]12C (stereo partly drawn) [ergosta-7,22-diene-2β,3α,9α-triol]
- ED50 for the hepatoma cells [5]: 1170 µg/mL
- ED50 for KB cells (KB cells): 0.89 µg/mL

Compound: CC(CC(=O)C[C@@H](C)[C@H]1CC(=O)[C@@]2(C)C3=C(C(=O)C[C@]12C)[C@@]1(C)CCC(=O)C(C)(C)[C@@H]1C[C@@H]3O)C(=O)O (some centres unmarked) [ganoderic acid D]
- reduction of 48/80-induced histamine release [6]: 80%
- reduction of Con-A-induced histamine release [6]: 80%

Compound: CC(=O)O[C@@H]1C(=O)C2=C(C(=O)C[C@H]3C(C)(C)C(=O)CC[C@]23C)[C@]2(C)C(=O)C[C@H]([C@H](C)CC(=O)CC(C)C(=O)O)[C@@]12C (some centres unmarked) [ganoderic acid F]
- IC50 [7]: 4.7 µM

Compound: ganoderaldehyde A
- ED50 for the hepatoma cells [5]: 10.99 µg/mL
- ED50 for KB cells (KB cells): 9.75 µg/mL

Compound: ganoderic acid C
- reduction of 48/80-induced histamine release [6]: 70%
- reduction of Con-A-induced histamine release [6]: 85%
